The test system of assay [1] is S. epidermidis AgrC-II. Put plainly: AgrC-II modulation, Group-II GFP reporter strain AH3567. The class given is cell-based, Staphylococcus epidermidis.
Assay [2] concerns S. epidermidis AgrC-III. Put plainly: AgrC-III modulation, Group-III GFP reporter strain AH3409. It is filed as cell-based, Staphylococcus epidermidis. The settings on record: initial single-concentration screen, 10 μM (Figures S-2, 2A).
Assay [3] deals with T1, S. epidermidis AgrC-I (Staphylococcus epidermidis, UniProt Q5HMY3). It is filed as cell-based. The settings on record: for IC50: AgrC-I antagonism dose response, peptide alone, Group-I reporter strain, 24 h.
The target of assay [4] is T1, S. epidermidis AgrC-I. The class given is cell-based. The settings on record: AgrC-I activation dose response in the presence of 50 nM S. epidermidis AIP-II.

The source of these data is PMC4946969 (ACS chemical biology, 2016).

Take D-S-V-(C-A-S-A-F) [AIP-I Y7A]: the “AgrC-II (Group-II) inhibition, single concentration” value in assay [1] (initial single-concentration screen, 10 μM (Figures S-1, 2A)) was ~ 50%. Moreover, the “AgrC-III (Group-III) inhibition, single concentration” value in assay [2] was ~ 50%. In addition, the IC50 entry in assay [3] is recorded as “Inactive ^c”. Besides, the EC50 entry in assay [4] is “Inactive ^c”.

Turning to D-S-V-(C-A-S-DY-F) [AIP-I D-Y7], the IC50 result in assay [3] was “Inactive ^c”. In addition, in assay [4], the EC50 result is “Inactive ^c”.

As to D-S-V-(C-A-S-Y-A) [AIP-I F8A], the IC50 result in assay [3] is reported as “Inactive ^c”. In addition, the EC50 result in assay [4] is recorded as “Inactive ^c”.

Regarding D-S-V-(C-DA-S-Y-F) [AIP-I D-A5], the IC50 entry in assay [3] was “Inactive ^c”. Moreover, the EC50 result in assay [4] is recorded as “Inactive ^c”.

Regarding D-S-V-(C-S-S-Y-F) [A5S-2], in assay [3] (two isolated AIP-I A5S products), the “AgrC-I dose response behaviour” value is recorded as “very weak inhibition at low concentrations yet activation at higher concentrations”.

Consider D-S-V-(DC-A-S-Y-F) [AIP-I D-C4], for which the IC50 entry in assay [3] is recorded as “Inactive ^c”. Further, in assay [4], the EC50 entry is “Inactive ^c”.

Regarding “I-N-(C-A-F-L-L) [S. aureus AIP-III D4A, reference compound]”, the “Activity toward Group-II (AgrC-II) at lower concentration” value in assay [1] (100 nM (lower-concentration screen 1 μM or 100 nM; Figure 2A)) is listed as “inhibiting exclusively Group-II”. The IC50 entry in assay [3] was “Inactive ^c”. For the same substance, in assay [4], the EC50 entry is given as “Inactive ^c”.

As for “I-N-(C-D-F-L-L) [S. aureus AIP-III, reference compound]”, in assay [3], the IC50 result was “Inactive ^c”. The EC50 entry in assay [4] was “Inactive ^c”.

As for “Y-S-T-(C-D-F-I-M) [S. aureus AIP-I, reference compound]”, the IC50 result in assay [3] is listed as “Inactive ^c”. Besides, the EC50 result in assay [4] was “Inactive ^c”.
